Experimental data as given in patent publication US9309198B2, “N-[3-(2-carboxyethyl)phenyl]piperidin-1-ylacetamide derivatives and use thereof as activators of soluble guanylate cyclase” (Bayer Pharma Aktiengesellschaft, priority 2012, dated 2016).
Structures can show the parent of a compound that is named as a salt.

What follows are compounds tested against T1, recombinant guanylate cyclase reporter cell line (sGC, CHO reporter cell) (Rattus norvegicus, UniProt P20595) (assay: Effect on a recombinant guanylate cyclase reporter cell line (CHO reporter cell)).
T1 construct: expressed in transfected cells; host or cells: CHO reporter cell line
T1 sequence (P20595 1-619): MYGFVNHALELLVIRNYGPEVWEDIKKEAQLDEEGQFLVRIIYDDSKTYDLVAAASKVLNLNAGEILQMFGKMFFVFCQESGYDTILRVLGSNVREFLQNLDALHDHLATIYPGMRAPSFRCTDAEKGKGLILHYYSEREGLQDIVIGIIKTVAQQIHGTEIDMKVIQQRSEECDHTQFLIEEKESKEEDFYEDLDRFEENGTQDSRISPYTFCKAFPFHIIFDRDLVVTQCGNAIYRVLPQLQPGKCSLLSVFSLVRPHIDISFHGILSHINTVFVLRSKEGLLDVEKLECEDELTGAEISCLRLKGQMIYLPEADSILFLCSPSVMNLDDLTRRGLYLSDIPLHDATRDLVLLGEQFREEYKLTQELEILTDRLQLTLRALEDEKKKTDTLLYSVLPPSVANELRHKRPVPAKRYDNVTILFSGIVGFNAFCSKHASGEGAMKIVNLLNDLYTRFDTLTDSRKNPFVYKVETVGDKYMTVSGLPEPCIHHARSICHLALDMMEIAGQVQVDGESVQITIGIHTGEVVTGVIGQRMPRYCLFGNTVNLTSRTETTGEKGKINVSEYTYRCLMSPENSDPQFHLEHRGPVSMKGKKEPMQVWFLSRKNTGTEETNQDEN
T1 sequence (P19686 1-690 partner): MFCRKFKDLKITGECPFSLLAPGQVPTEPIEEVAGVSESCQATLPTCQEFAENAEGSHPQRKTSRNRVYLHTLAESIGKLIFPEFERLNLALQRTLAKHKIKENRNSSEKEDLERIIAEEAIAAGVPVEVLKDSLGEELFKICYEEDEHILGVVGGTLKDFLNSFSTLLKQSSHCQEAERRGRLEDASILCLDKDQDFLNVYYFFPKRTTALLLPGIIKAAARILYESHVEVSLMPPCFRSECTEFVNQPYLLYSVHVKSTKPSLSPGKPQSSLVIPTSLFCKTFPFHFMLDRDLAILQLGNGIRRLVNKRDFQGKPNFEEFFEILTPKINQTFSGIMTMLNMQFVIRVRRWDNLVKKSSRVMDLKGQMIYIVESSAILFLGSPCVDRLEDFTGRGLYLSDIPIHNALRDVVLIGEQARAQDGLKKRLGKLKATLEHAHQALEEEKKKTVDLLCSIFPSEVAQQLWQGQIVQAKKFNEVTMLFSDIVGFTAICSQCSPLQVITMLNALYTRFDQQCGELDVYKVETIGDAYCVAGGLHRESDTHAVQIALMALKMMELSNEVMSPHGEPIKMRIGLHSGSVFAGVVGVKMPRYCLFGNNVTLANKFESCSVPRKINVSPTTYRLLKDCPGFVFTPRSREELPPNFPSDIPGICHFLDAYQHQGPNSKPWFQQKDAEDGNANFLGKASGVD
Assay type: cell-based
Description: B-2. Effect on a Recombinant Guanylate Cyclase Reporter Cell Line The cellular activity of the compounds according to the invention is determined using a recombinant guanylate cyclase reporter cell line, as described in F. Wunder et al., Anal. Biochem. 339, 104-112 (2005).

| MEC (minimum effective concentration), sGC-activating activity in the CHO reporter cell in vitro | Structure (SMILES) |
| --- | --- |
| 20 nM | CC1CCN(C(C(=O)Nc2cc(CCC(=O)O)ccc2Cl)C(C)C(F)(F)F)CC1 (racemic) [Example 1, 3-(4-Chloro-3-{[4,4,4-trifluoro-3-methyl-2-(4-methylpiperidin-1-yl)butanoyl]amino}phenyl)propanoic acid] |
| 3000 nM | COC1CCN(C(C(=O)Nc2cc(CC3(C(=O)O)CC3)ccc2F)C2CCCC2)CC1 (racemic) [Example 52, rac-1-(3-{[Cyclopentyl(4-methoxypiperidin-1-yl)acetyl]amino}-4-fluorobenzyl)cyclopropanecarboxylic acid trifluoroacetate] |
| 20 nM | CC(C(C(=O)Nc1cc(CC2(C(=O)O)CC2)ccc1F)N1CCCCC1)C(F)(F)F (single isomer, unassigned) [Example 2, 1-(4-fluoro-3-{[4,4,4-trifluoro-3-methyl-2-(piperidin-1-yl)butanoyl]amino}benzyl)cyclopropanecarboxylic acid] |
| 5 nM | CC1CCN(C(C(=O)Nc2cc(CC3(C(=O)O)CC3)ccc2F)C(C)C(F)(F)F)CC1 (single isomer, unassigned) [Example 4, 1-(4-fluoro-3-{[4,4,4-trifluoro-3-methyl-2-(4-methylpiperidin-1-yl)butanoyl]amino}benzyl)cyclopropanecarboxylic acid] |
| 60 nM | CC1CCN(C(C(=O)Nc2cc(CCC(=O)O)ccc2F)C(C)C(F)(F)F)CC1 (single isomer, unassigned) [Example 6, 3-(4-fluoro-3-{[4,4,4-trifluoro-3-methyl-2-(4-methylpiperidin-1-yl)butanoyl]amino}phenyl)propanoic acid] |
| 10 nM | CCC1CCN(C(C(=O)Nc2cc(CCC(=O)O)ccc2F)C(C)C(F)(F)F)CC1 (single isomer, unassigned) [Example 9, 3-(3-{[2-(4-ethylpiperidin-1-yl)-4,4,4-trifluoro-3-methylbutanoyl]amino}-4-fluorophenyl)propanoic acid] |
| 30 nM | CC1CCN(C(C(=O)Nc2cc(CCC(=O)O)ccc2Cl)C(C)C(F)(F)F)CC1 (single isomer, unassigned) [Example 13, 3-(4-chloro-3-{[4,4,4-trifluoro-3-methyl-2-(4-methylpiperidin-1-yl)butanoyl]amino}phenyl)propanoic acid] |
| 300 nM | CCC1CCN([C@H](C(=O)Nc2cc(CC3(C(=O)O)CC3)ccc2F)[C@H](C)C(F)(F)F)CC1 (single isomer, unassigned) [Example 38] |
| 1000 nM | CCC1CCN([C@H](C(=O)Nc2cc(CCC(=O)O)ccc2F)[C@H](C)C(F)(F)F)CC1 (single isomer, unassigned) [Example 40] |
| 10 nM | CCC1CCN([C@@H](C(=O)Nc2cc(CCC(=O)O)ccc2F)[C@@H](C)C(F)(F)F)CC1 (single isomer, unassigned) [Example 41] |
| 300 nM | CC1CCN([C@H](C(=O)Nc2cc(CCC(=O)O)ccc2Cl)[C@H](C)C(F)(F)F)CC1 (single isomer, unassigned) [Example 42] |
| 10 nM | CC1CCN([C@@H](C(=O)Nc2cc(CCC(=O)O)ccc2Cl)[C@@H](C)C(F)(F)F)CC1 (single isomer, unassigned) [Example 43] |
| 1000 nM | CCC1CCN([C@H](C(=O)Nc2cc(CCC(=O)O)ccc2Cl)[C@H](C)C(F)(F)F)CC1 (single isomer, unassigned) [Example 44] |
| 3 nM | CCC1CCN([C@@H](C(=O)Nc2cc(CCC(=O)O)ccc2Cl)[C@@H](C)C(F)(F)F)CC1 (single isomer, unassigned) [Example 45] |
| 3 nM | CC1CCN([C@@H](C(=O)Nc2cc([C@@H](C)CC(=O)O)ccc2Cl)[C@@H](C)C(F)(F)F)CC1 (single isomer, unassigned) [Example 49] |
| 10 nM | C[C@H]([C@H](C(=O)Nc1cc([C@@H](C)CC(=O)O)ccc1Cl)N1CCC2(CC1)CC2)C(F)(F)F (single isomer, unassigned) [Example 50] |
| 30 nM | CC(C(C(=O)Nc1cc(CC2(C(=O)O)CC2)ccc1F)N1CCCCC1)C(F)(F)F (single isomer, unassigned; (+)) [Example 35, (+)-1-(4-Fluoro-3-{[4,4,4-trifluoro-3-methyl-2-(piperidin-1-yl)butanoyl]amino}benzyl)cyclopropanecarboxylic acid] |

| MEC (minimum effective concentration), sGC-activating activity in the CHO reporter cell in vitro | Structure (SMILES) |
| --- | --- |
| 200 nM | CC1CCN(C(C(=O)Nc2cc(CCC(=O)O)ccc2F)C(C)C(F)(F)F)CC1.O=C(O)C(F)(F)F (single isomer, unassigned; (+)) [Example 37, (+)-3-(4-Fluoro-3-{[4,4,4-trifluoro-3-methyl-2-(4-methylpiperidin-1-yl)butanoyl]amino}phenyl)propanoic acid trifluoroacetate] |
| 60 nM | CC(C(C(=O)Nc1cc(CC2(C(=O)O)CC2)ccc1F)N1CCCCC1)C(F)(F)F (stereo not drawn) [Example 3] |
| 30 nM | CC1CCN(C(C(=O)Nc2cc(CCC(=O)O)ccc2F)C(C)C(F)(F)F)CC1 (stereo not drawn) [Example 5] |
| 60 nM | CC1CCN([C@@H](C(=O)Nc2cc(CCC(=O)O)ccc2F)[C@@H](C)C(F)(F)F)CC1 [Example 7] |
| 30 nM | CCC1CCN(C(C(=O)Nc2cc(CCC(=O)O)ccc2F)C(C)C(F)(F)F)CC1 (stereo not drawn) [Example 10] |
| 30 nM | CCC1CCN(C(C(=O)Nc2cc(CCC(=O)O)ccc2Cl)C(C)C(F)(F)F)CC1 (stereo not drawn) [Example 12] |
| 30 nM | CC(C(C(=O)Nc1cc(CCC(=O)O)ccc1Cl)N1CCC(C(F)(F)F)CC1)C(F)(F)F (stereo not drawn) [Example 14] |
| 10 nM | CC(C(C(=O)Nc1cc(CCC(=O)O)ccc1F)N1CCC2(CC1)CC2)C(F)(F)F (stereo not drawn) [Example 15] |
| 50 nM | C[C@H]([C@H](C(=O)Nc1cc(CCC(=O)O)ccc1F)N1CCC2(CC1)CC2)C(F)(F)F [Example 16] |
| 3 nM | C[C@H]([C@H](C(=O)Nc1cc(CCC(=O)O)ccc1Cl)N1CCC(C(F)(F)F)CC1)C(F)(F)F [Example 17] |
| 3 nM | C[C@H]([C@H](C(=O)Nc1cc(CCC(=O)O)ccc1Cl)N1CCC2(CC1)CC2)C(F)(F)F [Example 19] |
| 300 nM | C[C@H]([C@H](C(=O)Nc1cc(CCC(=O)O)ccc1F)N1CCC(c2ccccc2)CC1)C(F)(F)F [Example 22] |
| 3 nM | C[C@H]([C@H](C(=O)Nc1cc([C@@H](C)CC(=O)O)ccc1Cl)N1CCC(C(F)(F)F)CC1)C(F)(F)F [Example 23] |
| 100 nM | C[C@H]([C@H](C(=O)Nc1cc(CCC(=O)O)ccc1F)N1CCC(C(F)(F)F)CC1)C(F)(F)F [Example 24] |
| 20 nM | C[C@H]([C@H](C(=O)Nc1cc(C[C@H](C)C(=O)O)ccc1F)N1CCC2(CC1)CC2)C(F)(F)F [Example 28] |
| 30 nM | C[C@H](Cc1ccc(Cl)c(NC(=O)[C@@H]([C@@H](C)C(F)(F)F)N2CCC3(CC2)CC3)c1)C(=O)O [Example 29] |
